The text below walks through data of patent US4954488A, “Method of treating hyperaldosteronism using 17β-cyclopropylaminoandrostene derivatives” (Merrell Dow Pharmaceuticals Inc., priority 1989, dated 1990).

The target in the assay is T1, enzymes in the synthesis of aldosterone (Rattus norvegicus, UniProt P30099).
T1 construct: From these animals, adrenal capsule/glomerulosa homogenates were prepared; from tissue; host or cells: adrenal capsule/glomerulosa homogenate of sodium-deficient young male Sprague-Dawley rats
Nature of the assay: Inhibition of aldosterone formation from [3H]-DOC in rat adrenal capsule/glomerulosa homogenates. Format: biochemical, Sprague-Dawley rats. The following applies: pH 7.4, 25° C.; for IC50: 40 minute preincubation data, 10-minute assay, 1 μM [3H]-DOC, read-out: IC50 (half-maximal inhibition of aldosterone formation); for t50 (t1/2 for enzyme inactivation at infinite inhibitor concentration) / Ki: linear regression of t1/2 vs. 1/[I], Kitz-Wilson plots; for Ki: read-out: Ki for time-dependent inhibition. The procedure:
Young male Sprague-Dawley rats were maintained on a sodium-deficient diet for about two weeks prior to use. From these animals, adrenal capsule/glomerulosa homogenates were prepared (6 mg/ml) in pH 7.4 assay buffer [MgCl2 8.5 mM, CaCl2 2.7 mM, KCl 3.13 mM, NaCl 7.591 mM, TRIS 50 mM and 0.1% triethylamine] and centrifuged 500xg for 10 minutes.
Assays were conducted in 35 ml glass tubes maintained at 25° C. in a Dubnoff shaker with 95% O2 /5% CO2. The tubes contained the following material: 100 μl of an NADPH^+ generating system, 300 μl of adrenal capsular/glomerulosa cytosol, and 50 μl of test compound or buffer (control). After initial preincubation intervals of 20 minutes, the 10-minute assay was started by the addition of 50 μl of tritium-labelled substrate, i.e., 1 μM [^3 H]-DOC. Reactions were quenched by the addition of 5 ml of ethyl acetate and non-radiolabelled steroids were also added. The samples were extracted twice with 5 ml of ethyl acetate and the solvent evaporated under nitrogen at 30°-40° C.
Residues were redissolved in methanol:water (40:60) with 0.1% triethylamine and high performance liquid chromatography was used to separate products on a C18 reverse phase (5μ ODS-Hypersil) column (4.6×250 mm, Shannon) with a 1 ml/min flow rate using an MeOH:H20 gradient (solvent A 10/90:solvent B 90/10).
Substrate remaining and products formed were monitored by UV absorbance at 246 nm and the amount of steroid compound present was quantified by [^3 H] radioactivity. The concentration of compound to produce half-maximal inhibition (IC50) of aldosterone formation from the 40 minute preincubation data was graphically estimated from a linear-log plot of percent inhibition vs. log of the compound concentration. The Ki for time-dependent inhibition and the t1/2 for enzyme inactivation at infinite inhibitor concentration (t50) was determined by the linear regression analyses of t1/2 vs. 1/[I] data of Kitz-Wilson plots. Using this procedure, the following results were observed: […]

Consider `C[C@]12CC[C@H]3[C@@H](CCC4=CC(=O)CC[C@@]43C)[C@@H]1CC[C@@H]2NC1CC1` [17β-(Cyclopropylamino)androst-4-en-3-one], for which the IC50 (usually the concentration needed to halve the response being measured) amounted to 180 nM.

On to `C[C@]12CC[C@H]3[C@@H](CC=C4C[C@@H](O)CC[C@@]43C)[C@@H]1CC[C@@H]2NC1CC1` [17β-(Cyclopropylamino)androst-5-en-3β-ol], for which the IC50 came to 1100 nM, the “t50 (t1/2 for enzyme inactivation at infinite inhibitor concentration)” value is 9.7 min and the Ki is 4850 nM.

For `CN(C1CC1)[C@H]1CC[C@H]2[C@@H]3CC=C4C[C@@H](O)CC[C@]4(C)[C@H]3CC[C@]12C` [17β-[N-Methyl(cyclopropylamino)]-androst-5-en-3β-ol], the 50% inhibitory concentration (IC50) worked out at 350 nM, the “t50 (t1/2 for enzyme inactivation at infinite inhibitor concentration)” value came to 9.0 min and the Ki was 350 nM.

For `CN(C1CC1)[C@H]1CC[C@H]2[C@@H]3CCC4=CC(=O)CC[C@]4(C)[C@H]3CC[C@]12C` [17β-[N-Methyl(cyclopropylamino)]androst-4-en-3-one], the half-maximal inhibitory concentration (IC50) is 130 nM, the “t50 (t1/2 for enzyme inactivation at infinite inhibitor concentration)” value worked out at 15.4 min and the Ki was 140 nM.
